The text below walks through data of patent US9464084B2, “P2X7 modulators” (Janssen Pharmaceutica NV, priority 2013, dated 2016).

pIC50, pKi: −log10 of the molar value. Counter-ions that a name gives are not always drawn.

One may read the pIC50 as the negative decadic logarithm of the IC50, by convention in mol/L. One may read the pKi as the negative decadic logarithm of the Ki, by convention in mol/L.

For experiment [1], the target named is T1, P2X7 (Homo sapiens (Human), UniProt Q99572). The experiment is described as follows: P2X7 antagonism in human PBMCs (LPS + Bz-ATP induced IL-1β release, ELISA).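 As to all read-outs here: PBMCs from donor human blood, with a further 1.5 h incubation of the cells in the assay.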 The class given is cell-based. To be noted: LPS 30 ng/ml, Bz-ATP 0.5 mM; for PBMC 10 μM (% control): compound 10 μM; for PBMC 1 μM (% control): compound 1 μM.
Experimental: Human blood was collected using a blood donor program. PBMCs were isolated from blood using a Ficoll density gradient technique. Briefly, blood was laid on Ficoll solution and centrifuged at RT for 20 minutes at 2000 rpm. The buffy layer (between red blood cells and plasma) was carefully collected by aspiration, washed with PBS and centrifuged again at 1500 rpm for 15 minutes. The resulting cell pellet was washed and plated on 96 well-plates for experiments. For the Mouse/Human Whole Blood experiments, 150 μl of either mouse or human blood was platted on 96 well-plates. Lipopolysaccharide (LPS) (30 ng/ml) was added to each well and incubated for 1 hour. Test compounds were then added and incubated for 30 minutes. The P2X7 agonist, 2′(3′)-O-(4-benzoylbenzoyl) adenosine 5′ triphosphate (Bz-ATP) was then added at a final concentration of 0.5 mM (PBMC) or 1 mM (blood). Cells were incubated for an additional 1.5 hours. At that point, supernatant was collected and stored for IL-1β assay using manufacturer's protocol for enzyme-linked immunosorbent assay (ELISA). Data was expressed as percent control, where control is defined as the difference in IL-1β release in LPS+Bz-ATP samples and LPS only samples. Data was plotted as response (% control) versus concentration to generate IC50 values.
For experiment [2], the target named is T1, P2X7. The experiment is described as follows: Ca2+ flux (FLIPR) in 1321N1 cells expressing recombinant human P2X7 channel.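 Also: Calcium-4 dye-loaded cells exposed to compound for 30 min before agonist addition, fluorescence change read 180 s after agonist.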 The class given is cell-based. To be noted: 250 μM BzATP.
Experimental: (§1) Cells were seeded at a density of 25000 cells/well (96-well clear bottom black walled plates) in 100 μl volume/well. On the day of the experiment, cell plates were washed with assay buffer, containing (in mM): 130 NaCl, 2 KCl, 1 CaCl2, 1 MgCl2, 10 HEPES, 5 glucose; pH 7.40 and 300 mOs. After the wash, cells were loaded with the Calcium-4 dye (Molecular Device) and incubated in the dark for 60 minutes. Test compounds were prepared at 250× the test concentration in neat DMSO. Intermediate 96-well compound plates were prepared by transferring 1.2 μL of the compound into 300 μL of assay buffer. A further 3× dilution occurred when transferring 50 μL/well of the compound plate to 100 μL/well in the cell plate. Cells were incubated with test compounds and dye for 30 minutes. […] The fluorescence change was measured 180 seconds after adding the agonist.
The target in experiment [3] is T1, P2X7. As to the kind of experiment: Radioligand binding, tritiated A-804598, human P2X7-1321N1 cell membranes.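 Also: ki obtained from the binding IC50 after correction for tracer concentration and tracer affinity.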 The following applies: 1 hour at 4° C.
Experimental: On the day of the experiment, cell membrane preparations were made according to standard published methods. […] The assay was terminated by filtration (GF/B filters pre-soaked with 0.3% PEI) and washed with washing buffer (Tris-HCl 50 mM). The IC50 generated in the binding assay was corrected for tracer concentration and affinity of the tracer to derive at the affinity (Ki) of the test compounds.
The target in a further experiment is rat P2X7 (Rattus norvegicus (Rat), UniProt Q64663). As to the kind of experiment: Ca2+ flux (FLIPR) in 1321N1 cells expressing recombinant rat P2X7 channel.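 Also: Calcium-4 dye fluorescence change read 180 s after agonist addition, following 30 min cell preincubation with test compound.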 The class given is cell-based. To be noted: 250 μM BzATP.
Chain of rat P2X7 (Q64663 whole entry): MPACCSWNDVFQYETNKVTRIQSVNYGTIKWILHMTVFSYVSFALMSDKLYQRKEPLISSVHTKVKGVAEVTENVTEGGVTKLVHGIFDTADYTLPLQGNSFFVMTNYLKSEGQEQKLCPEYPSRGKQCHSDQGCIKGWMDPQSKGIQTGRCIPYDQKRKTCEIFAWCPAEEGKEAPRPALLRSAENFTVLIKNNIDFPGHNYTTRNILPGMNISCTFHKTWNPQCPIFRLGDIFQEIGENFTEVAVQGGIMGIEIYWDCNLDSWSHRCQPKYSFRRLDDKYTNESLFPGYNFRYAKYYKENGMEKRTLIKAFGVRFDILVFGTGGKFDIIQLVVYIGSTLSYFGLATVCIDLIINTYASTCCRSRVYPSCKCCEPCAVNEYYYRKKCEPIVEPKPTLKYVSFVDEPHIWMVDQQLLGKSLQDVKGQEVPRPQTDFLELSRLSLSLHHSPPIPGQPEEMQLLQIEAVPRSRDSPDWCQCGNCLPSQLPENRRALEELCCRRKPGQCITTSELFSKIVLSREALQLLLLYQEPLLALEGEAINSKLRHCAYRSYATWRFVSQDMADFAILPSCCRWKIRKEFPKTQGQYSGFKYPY

T1 sequence (Q99572 whole entry): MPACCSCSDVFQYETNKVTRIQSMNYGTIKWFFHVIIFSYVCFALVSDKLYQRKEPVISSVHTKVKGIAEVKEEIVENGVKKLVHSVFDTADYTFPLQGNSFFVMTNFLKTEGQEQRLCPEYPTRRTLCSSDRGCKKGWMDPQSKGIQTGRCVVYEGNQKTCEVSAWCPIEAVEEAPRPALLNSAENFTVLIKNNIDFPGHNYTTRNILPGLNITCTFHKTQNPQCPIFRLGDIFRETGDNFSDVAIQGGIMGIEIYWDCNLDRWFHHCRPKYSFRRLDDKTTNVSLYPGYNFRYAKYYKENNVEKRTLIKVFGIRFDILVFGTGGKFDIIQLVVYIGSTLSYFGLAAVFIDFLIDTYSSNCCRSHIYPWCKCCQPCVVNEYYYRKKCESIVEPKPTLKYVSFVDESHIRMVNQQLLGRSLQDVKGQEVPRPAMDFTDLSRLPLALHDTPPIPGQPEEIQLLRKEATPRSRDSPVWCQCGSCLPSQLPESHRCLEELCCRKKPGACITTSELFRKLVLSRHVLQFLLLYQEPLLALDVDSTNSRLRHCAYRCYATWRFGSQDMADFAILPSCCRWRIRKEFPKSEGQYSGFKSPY
Experimental for rat P2X7: as §1

As to `Cn1ccc(-n2nnc3c2CCN(C(=O)c2cccc(C(F)(F)F)c2Cl)C3)n1` [Example 127, (2-Chloro-3-(trifluoromethyl)phenyl)(1-(1-methyl-1H-pyrazol-3-yl)-6,7-dihydro-1H-[1,2,3]triazolo[4,5-c]pyridin-5(4H)-yl)methanone], the “PBMC 10 μM (% control)” value at P2X7 [1] was 9.2 % control. Moreover, the pIC50 at P2X7 [2] was 7.66; on rat P2X7 it was 7.05. The pKi at P2X7 [3] was 7.40.

As to `Cn1nc2c(c1-c1ccccn1)CCN(C(=O)c1cccc(C(F)(F)F)c1Cl)C2` [Example 92, 6-{[2-Chloro-3-(trifluoromethyl)phenyl]carbonyl}-2-methyl-3-pyridin-2-yl-4,5,6,7-tetrahydro-2H-pyrazolo[3,4-c]pyridine], at P2X7 [1], the “PBMC 1 μM (% control)” value is recorded as 2.8 % control. Besides, the pIC50 at P2X7 [2] was 8.27; on rat P2X7, 6.36. Moreover, on P2X7 [3], the pKi is 7.58.

In the case of `CC1c2nnn(-c3cnccn3)c2CCN1C(=O)c1cccc(C(F)(F)F)c1F` (stereo not drawn) [Example 273, (2-fluoro-3-(trifluoromethyl)phenyl)(4-methyl-1-(pyrazin-2-yl)-6,7-dihydro-1H-[1,2,3]triazolo[4,5-c]pyridin-5(4H)-yl)methanone], the “PBMC 10 μM (% control)” value on P2X7 [1] is −2.1 % control. Further, the pIC50 at P2X7 [2] was 8.12; at rat P2X7, 7.08. At P2X7 [3], the pKi is 7.74.

Turning to `CC1c2nnn(-c3cnccn3)c2CCN1C(=O)c1ccc(Cl)cc1Cl` (stereo not drawn) [Example 279, (2,4-dichlorophenyl)(4-methyl-1-(pyrazin-2-yl)-6,7-dihydro-1H-[1,2,3]triazolo[4,5-c]pyridin-5(4H)-yl)methanone], at P2X7 [1], the “PBMC 10 μM (% control)” value is −16.9 % control. Moreover, the values for the negative-log IC50 (pIC50) at P2X7 [2] and at rat P2X7 were 8.07 and 6.36, respectively. This compound also gave a pKi on P2X7 [3] of 7.94.

For the compound `CC1c2nnn(-c3cnccn3)c2CCN1C(=O)c1ccc(Cl)cc1F` (stereo not drawn) [Example 274, (4-chloro-2-fluorophenyl)(4-methyl-1-(pyrazin-2-yl)-6,7-dihydro-1H-[1,2,3]triazolo[4,5-c]pyridin-5(4H)-yl)methanone], at P2X7 [1], the “PBMC 10 μM (% control)” value was −4.8 % control. Also, the pIC50 on P2X7 [2] is 7.13; at rat P2X7, 5.73. In addition, the pKi at P2X7 [3] is 7.38.

As to `CC1Cc2c(-c3ccn[nH]3)n[nH]c2CN1C(=O)c1cccc(C(F)(F)F)c1Cl` (stereo not drawn) [Example 267, (2-chloro-3-(trifluoromethyl)phenyl)(5-methyl-3-(1H-pyrazol-5-yl)-4,5-dihydro-1H-pyrazolo[3,4-c]pyridin-6(7H)-yl)methanone], the “PBMC 10 μM (% control)” value on P2X7 [1] is given as −50.8 % control. Also, the values for the pIC50 on P2X7 [2] and at rat P2X7 were 8.09 and 8.02, respectively. The compound further had a pKi at P2X7 [3] of 8.00.

As to `CC1c2nnn(-c3ncccn3)c2C=CN1C(=O)c1cccc(C(F)(F)F)c1Cl` (stereo not drawn) [Example 79, 5-{[2-Chloro-3-(trifluoromethyl)phenyl]carbonyl}-4-methyl-1-pyrimidin-2-yl-4,5-dihydro-1H-[1,2,3]triazolo[4,5-c]pyridine], at P2X7 [1], the “PBMC 1 μM (% control)” value came out at 23.2 % control. Further, the negative-log IC50 (pIC50) at P2X7 [2] is 8.21; at rat P2X7, 7.06. At P2X7 [3], the pKi was 7.50.

As to `O=C(c1cccc(C(F)(F)F)c1Cl)N1CCc2c(-c3ccccn3)n[nH]c2C1` [Example 93, 6-{[2-Chloro-3-(trifluoromethyl)phenyl]carbonyl}-3-pyridin-2-yl-4,5,6,7-tetrahydro-2H-pyrazolo[3,4-c]pyridine. TFA salt], the “PBMC 1 μM (% control)” value on P2X7 [1] worked out at 9.0 % control. For the same compound, the pIC50 at P2X7 [2] is 8.10; at rat P2X7, 6.60. Further, the negative logarithm of the Ki (pKi) on P2X7 [3] was 7.40.

`Cc1ccc(-n2nnc3c2CCN(C(=O)c2cccc(Cl)c2Cl)C3C)nc1` (stereo not drawn) [Example 336, (2,3-dichlorophenyl)(4-methyl-1-(5-methylpyridin-2-yl)-6,7-dihydro-1H-[1,2,3]triazolo[4,5-c]pyridin-5(4H)-yl)methanone]: the “PBMC 10 μM (% control)” value on P2X7 [1] is recorded as −0.5 % control. The results for the pIC50 on P2X7 [2] and at rat P2X7 were 6.54 and 5.67, respectively. The pKi at P2X7 [3] is 6.43.
